Laboratory results reported in ChEMBL document CHEMBL1201862, “PubChem BioAssay data set” (2004).
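In this assay, cells in 96-well plates receive the compound at five concentrations for 48 hours. Endpoints are linearly interpolated between the surrounding concentrations. GI50 is the concentration that inhibits growth by half.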 The source made the active and inactive calls. No stated cut-off is given here; in the data, active = GI50 up to about 1.1 µM and inactive = higher.

Legend:
Experiment in all cases: inhibition of tumour cell growth, NCI panel, 48 h
ACHN = tested on: ACHN
DU-145 = tested on: DU-145
EKVX = tested on: EKVX
IGROV-1 = tested on: IGROV-1
M14 = tested on: M14
MDA-MB-231 = tested on: MDA-MB-231
MDA-MB-435 = tested on: MDA-MB-435
NCI-H226 = tested on: NCI-H226
NCI/ADR-RES = tested on: NCI/ADR-RES
OVCAR-5 = tested on: OVCAR-5
RPMI-8226 = tested on: RPMI-8226
RXF 393 = tested on: RXF 393
SF-268 = tested on: SF-268
SK-MEL-28 = tested on: SK-MEL-28
SK-OV-3 = tested on: SK-OV-3
SNB-19 = tested on: SNB-19
U-251 = tested on: U-251
UO-31 = tested on: UO-31
Malme-3M = tested on: Malme-3M

Measured: GI50

CCOC(=O)CSc1nc(-c2ccccc2)c(C#N)c(=O)[nH]1
inactive: ACHN > 100 µM | DU-145 > 100 µM | EKVX > 100 µM | IGROV-1 > 100 µM | M14 > 100 µM | MDA-MB-231 > 100 µM | MDA-MB-435 > 100 µM | NCI-H226 > 100 µM | NCI/ADR-RES > 100 µM | OVCAR-5 > 100 µM | RPMI-8226 > 100 µM | RXF 393 > 100 µM | SF-268 > 100 µM | SK-MEL-28 > 100 µM | SK-OV-3 > 100 µM | SNB-19 > 100 µM | U-251 > 100 µM | UO-31 > 100 µM

COC1=NC(NC2OCC(O)C(O)C2O)=C(NC(C)=O)CN1C (stereo not given)
inactive: ACHN > 100 µM | DU-145 > 100 µM | EKVX > 100 µM | M14 > 100 µM | MDA-MB-231 > 100 µM | MDA-MB-435 > 100 µM | Malme-3M > 100 µM | NCI-H226 > 100 µM | NCI/ADR-RES > 100 µM | OVCAR-5 > 100 µM | RPMI-8226 > 100 µM | RXF 393 > 100 µM | SF-268 > 100 µM | SK-MEL-28 > 100 µM | SK-OV-3 > 100 µM | SNB-19 > 100 µM | UO-31 > 100 µM

CC1(C)CC(=O)c2c(nc3c(ccc4ccccc43)c2-c2ccc(NC(=O)CCCCC(=O)Nc3ccc(-c4c5c(nc6c4ccc4ccccc46)CC(C)(C)CC5=O)cc3)cc2)C1
inactive: ACHN 24 µM | DU-145 36.1 µM | EKVX 21.2 µM | IGROV-1 14 µM | M14 32.3 µM | MDA-MB-231 19.3 µM | MDA-MB-435 26.2 µM | NCI-H226 15.2 µM | NCI/ADR-RES 23.8 µM | OVCAR-5 30.9 µM | RPMI-8226 18.8 µM | RXF 393 78.3 µM | SF-268 28.2 µM | SK-MEL-28 34 µM | SK-OV-3 37.2 µM | SNB-19 69.2 µM | U-251 28.4 µM | UO-31 19.5 µM

O=C(O)CCC(/N=C(\C(=N\C(CCC(=O)O)C(=O)O)c1ccccc1)c1ccccc1)C(=O)O (stereo not given)
inactive: ACHN > 100 µM | DU-145 > 100 µM | EKVX > 100 µM | M14 > 100 µM | MDA-MB-231 > 100 µM | MDA-MB-435 > 100 µM | NCI-H226 > 100 µM | NCI/ADR-RES > 100 µM | OVCAR-5 > 100 µM | RPMI-8226 > 100 µM | RXF 393 > 100 µM | SF-268 > 100 µM | SK-MEL-28 > 100 µM | SK-OV-3 > 100 µM | SNB-19 > 100 µM | U-251 > 100 µM | UO-31 > 100 µM

CC(=O)NC1C(OCc2ccccc2)OC(CO)C(O)C1OC(C)C(=O)NC(C(=O)NC(CCC(=O)NCCCC(=O)Nc1ccc2c(c1)CN1C(=O)c3ccccc3C1=N2)C(N)=O)C(C)C (stereo not given)
inactive: ACHN > 100 µM | DU-145 > 100 µM | EKVX > 100 µM | IGROV-1 > 100 µM | M14 > 100 µM | MDA-MB-231 > 100 µM | MDA-MB-435 > 100 µM | Malme-3M > 100 µM | NCI/ADR-RES > 100 µM | OVCAR-5 > 100 µM | RPMI-8226 > 100 µM | RXF 393 > 100 µM | SF-268 > 100 µM | SK-MEL-28 > 100 µM | SK-OV-3 > 100 µM | SNB-19 > 100 µM | U-251 > 100 µM | UO-31 > 100 µM

COc1cc(/C=C2\N=C(c3ccccc3)N(c3nc4c(OC)ccc(OC)c4s3)C2=O)ccc1O
inactive: ACHN 59.2 µM | DU-145 28.8 µM | EKVX > 100 µM | IGROV-1 46.8 µM | M14 88.5 µM | MDA-MB-231 45.7 µM | MDA-MB-435 20.1 µM | Malme-3M 85.7 µM | NCI/ADR-RES > 100 µM | OVCAR-5 > 100 µM | RPMI-8226 23.1 µM | RXF 393 11.1 µM | SF-268 39.1 µM | SK-MEL-28 > 100 µM | SK-OV-3 > 100 µM | SNB-19 > 100 µM | U-251 29.9 µM | UO-31 76.7 µM

OC(CC(CC(O)(C(F)(F)F)C(F)(F)F)=NN=C(CC(O)(C(F)(F)F)C(F)(F)F)CC(O)(C(F)(F)F)C(F)(F)F)(C(F)(F)F)C(F)(F)F
inactive: ACHN > 10 µM | DU-145 > 10 µM | EKVX > 10 µM | IGROV-1 > 10 µM | M14 > 10 µM | MDA-MB-231 > 10 µM | MDA-MB-435 > 10 µM | Malme-3M > 10 µM | NCI-H226 > 10 µM | NCI/ADR-RES > 10 µM | OVCAR-5 > 10 µM | RPMI-8226 > 10 µM | RXF 393 > 10 µM | SF-268 > 10 µM | SK-MEL-28 > 10 µM | SK-OV-3 > 10 µM | SNB-19 > 10 µM | U-251 > 10 µM

C1=CC2(C=CC13O[C@H](C1CCCCC1)[C@@H](C1CCCCC1)O3)O[C@H](C1CCCCC1)[C@@H](C1CCCCC1)O2
inactive: ACHN > 50 µM | DU-145 > 50 µM | IGROV-1 > 50 µM | M14 > 50 µM | MDA-MB-231 > 50 µM | MDA-MB-435 > 50 µM | Malme-3M > 50 µM | NCI-H226 > 50 µM | NCI/ADR-RES > 50 µM | OVCAR-5 > 50 µM | RPMI-8226 23.2 µM | RXF 393 > 50 µM | SF-268 > 50 µM | SK-MEL-28 > 50 µM | SK-OV-3 > 50 µM | SNB-19 > 50 µM | U-251 > 50 µM | UO-31 > 50 µM

CCOC(=O)CN1C(=O)NC(C)(c2ccccc2)C1=O (stereo not given)
inactive: ACHN > 100 µM | DU-145 > 100 µM | EKVX > 100 µM | IGROV-1 > 100 µM | M14 > 100 µM | MDA-MB-231 > 100 µM | MDA-MB-435 > 100 µM | NCI/ADR-RES > 100 µM | OVCAR-5 > 100 µM | RPMI-8226 > 100 µM | RXF 393 > 100 µM | SF-268 > 100 µM | SK-MEL-28 > 100 µM | SK-OV-3 > 100 µM | SNB-19 > 100 µM | U-251 > 100 µM | UO-31 > 100 µM

O=C1NC(=O)C(c2c[nH]c3ccccc23)=C1c1cn(C(c2ccccc2)(c2ccccc2)c2ccccc2)cn1
inactive: ACHN 4.8 µM | DU-145 19.6 µM | EKVX 4.19 µM | IGROV-1 8.87 µM | M14 4.76 µM | MDA-MB-231 12.8 µM | MDA-MB-435 3.92 µM | Malme-3M 10.4 µM | NCI-H226 5.87 µM | NCI/ADR-RES 4.29 µM | OVCAR-5 8.73 µM | RPMI-8226 3.13 µM | RXF 393 4.52 µM | SF-268 11.7 µM | SK-MEL-28 16.2 µM | SK-OV-3 14.7 µM | SNB-19 11.3 µM | U-251 4.25 µM

Cc1cc(-c2nc3ccc(F)cc3s2)ccc1N
inactive: ACHN 68.2 µM | DU-145 > 100 µM | EKVX 56.5 µM | IGROV-1 1.28 µM | M14 > 100 µM | MDA-MB-231 > 100 µM | MDA-MB-435 > 100 µM | Malme-3M > 100 µM | NCI-H226 59.8 µM | NCI/ADR-RES > 100 µM | OVCAR-5 > 100 µM | RPMI-8226 5.6 µM | RXF 393 49.8 µM | SF-268 > 100 µM | SK-MEL-28 > 100 µM | SNB-19 > 100 µM | U-251 > 100 µM | UO-31 > 100 µM
